From ChEMBL document CHEMBL1201862, “PubChem BioAssay data set” (2004)
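Briefly, cells in 96-well plates were exposed to five compound concentrations for 48 h, and endpoints were estimated by linear interpolation. Abbreviation: GI50, concentration required for 50% inhibition of growth.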 The source made the active and inactive calls. No stated cut-off is given here; in the data, active = GI50 up to about 1.1 µM and inactive = higher.

Columns and labels:
Assay in all cases: NCI tumour cell line growth inhibition, 48 h
A549 = system: A549
CAKI-1 = system: CAKI-1
CCRF-CEM = system: CCRF-CEM
EKVX = system: EKVX
HCT-116 = system: HCT-116
HOP-92 = system: HOP-92
HT-29 = system: HT-29
KM12 = system: KM12
MOLT-4 = system: MOLT-4
Malme-3M = system: Malme-3M
NCI-H23 = system: NCI-H23
NCI-H460 = system: NCI-H460
OVCAR-3 = system: OVCAR-3
SNB-75 = system: SNB-75
SW-620 = system: SW-620
U-251 = system: U-251
UO-31 = system: UO-31
SK-MEL-5 = system: SK-MEL-5

SMILES	GI50 (A549)	GI50 (CAKI-1)	GI50 (CCRF-CEM)	GI50 (EKVX)	GI50 (HCT-116)	GI50 (HOP-92)	GI50 (HT-29)	GI50 (KM12)	GI50 (MOLT-4)	GI50 (Malme-3M)	GI50 (NCI-H23)	GI50 (NCI-H460)	GI50 (OVCAR-3)	GI50 (SNB-75)	GI50 (SW-620)	GI50 (U-251)	GI50 (UO-31)	GI50 (SK-MEL-5)
N=c1oc2c(O)c(O)ccc2cc1C(N)=O	> 100 µM (inactive)	> 100 µM (inactive)	21.6 µM (inactive)	47.2 µM (inactive)	51.1 µM (inactive)	> 100 µM (inactive)	> 100 µM (inactive)	> 100 µM (inactive)	34 µM (inactive)	84.3 µM (inactive)	> 100 µM (inactive)	> 100 µM (inactive)	46.8 µM (inactive)	30.2 µM (inactive)	32.1 µM (inactive)	90.6 µM (inactive)	> 100 µM (inactive)	–
COC1CC(COCc2ccccc2)CC(OC)O1 (centres undefined)	> 100 µM (inactive)	> 100 µM (inactive)	0.0198 µM (active)	> 100 µM (inactive)	> 100 µM (inactive)	> 100 µM (inactive)	> 100 µM (inactive)	> 100 µM (inactive)	> 100 µM (inactive)	–	> 100 µM (inactive)	> 100 µM (inactive)	> 100 µM (inactive)	> 100 µM (inactive)	> 100 µM (inactive)	–	> 100 µM (inactive)	> 100 µM (inactive)
CN1C(=O)c2cccc3c([N+](=O)[O-])ccc(c23)C1=O	12.7 µM (inactive)	2.45 µM (inactive)	7.24 µM (inactive)	13.7 µM (inactive)	6.52 µM (inactive)	6.52 µM (inactive)	–	4.94 µM (inactive)	5.55 µM (inactive)	16.2 µM (inactive)	11.9 µM (inactive)	2.56 µM (inactive)	3.19 µM (inactive)	12.3 µM (inactive)	2.43 µM (inactive)	3.7 µM (inactive)	13.7 µM (inactive)	18.3 µM (inactive)
O=C(O)/C=C/n1c2ccccc2c(=O)c2ccccc21	> 100 µM (inactive)	> 100 µM (inactive)	> 100 µM (inactive)	> 100 µM (inactive)	> 100 µM (inactive)	–	> 100 µM (inactive)	> 100 µM (inactive)	> 100 µM (inactive)	> 100 µM (inactive)	> 100 µM (inactive)	> 100 µM (inactive)	> 100 µM (inactive)	–	> 100 µM (inactive)	> 100 µM (inactive)	> 100 µM (inactive)	–
Nc1ccc(C2=Nc3ccccc3SC(c3ccccc3O)C2)cc1 (centres undefined)	51.2 µM (inactive)	58.9 µM (inactive)	12.4 µM (inactive)	99.8 µM (inactive)	–	–	42.8 µM (inactive)	25.5 µM (inactive)	19.8 µM (inactive)	> 100 µM (inactive)	30.5 µM (inactive)	30.6 µM (inactive)	23.3 µM (inactive)	24.7 µM (inactive)	33.7 µM (inactive)	45.5 µM (inactive)	29.8 µM (inactive)	26.1 µM (inactive)
NC(CCC(=O)NC(CSC(=O)N(O)c1ccccc1)C(=O)NCC(=O)O)C(=O)O (centres undefined)	> 1000 µM (inactive)	> 1000 µM (inactive)	> 1000 µM (inactive)	> 1000 µM (inactive)	> 1000 µM (inactive)	> 1000 µM (inactive)	> 1000 µM (inactive)	> 1000 µM (inactive)	–	> 1000 µM (inactive)	> 1000 µM (inactive)	> 1000 µM (inactive)	> 1000 µM (inactive)	> 1000 µM (inactive)	> 1000 µM (inactive)	> 1000 µM (inactive)	918 µM (inactive)	> 1000 µM (inactive)
COc1ccc(/C(Cl)=C(\C=O)c2ccc(Br)cc2)cc1OC	62.5 µM (inactive)	> 100 µM (inactive)	–	> 48.4 µM (inactive)	–	17.7 µM (inactive)	> 100 µM (inactive)	> 100 µM (inactive)	4.27 µM (inactive)	47.8 µM (inactive)	64.7 µM (inactive)	> 68.9 µM (inactive)	> 100 µM (inactive)	2.81 µM (inactive)	> 100 µM (inactive)	32.8 µM (inactive)	> 100 µM (inactive)	> 100 µM (inactive)
CCOC(=O)NC(=O)c1cn(CCN2CCNCC2)c(=O)[nH]c1=O	> 100 µM (inactive)	> 100 µM (inactive)	> 100 µM (inactive)	> 100 µM (inactive)	> 100 µM (inactive)	> 100 µM (inactive)	> 100 µM (inactive)	> 100 µM (inactive)	> 100 µM (inactive)	–	> 100 µM (inactive)	> 100 µM (inactive)	> 100 µM (inactive)	–	> 100 µM (inactive)	> 100 µM (inactive)	–	> 100 µM (inactive)
